From US11124509B2, “Tri-substituted imidazoles for the inhibition of TGF beta and methods of treatment” (CLAVIUS PHARMACEUTICALS, LLC, priority 2017, dated 2021)
pIC50: −log10 of the molar value. Where a name gives a salt, the structure may show the parent alone. Read-outs that look alike come from different tables or passages of the source.

How the values were obtained:
[1] = tested on: TGF-beta 1 stimulated SBE-b1a HEK 293T cells; assay: GeneBLAzer beta-lactamase reporter, TGF-beta 1 stimulated SBE-b1a HEK 293T cell-based assay (ThermoFisher SelectScreen); conditions: TGF-beta 1 0.03 nM, 5 hours, inhibitor 10,000 nM to 0.316 nM, sigmoidal dose response curve fit, read-out: Cells (SBE_HEK293T) IC50
Description: (§1) Exemplified compounds were confirmed to inhibit ALK5 activity in enzyme and cellular assays in the following assay systems conducted by ThermoFisher in Madison, Wis. according to their commercially available protocols.
ThermoFisher SelectScreen™ Cell-Based Pathway Profiling Service GeneBLAzer Beta-Lactamase (b1a) Reporter Technology—TGF-Beta 1 Stimulated SBE-b1a HEK 293T Cell-Based Assay
SBE-b1a HEK 293T cells were thawed and re-suspended in Assay Media (OPTI-MEM, 0.5% dialyzed FBS, 0.1 mM NEAA, 1 mM Sodium Pyruvate, 100 U/mL/100 μg/mL Pen/Strep) to a concentration of 625,000 cells/mL. 32 μL of cell suspension (20,000 cells) was added to each well of a 384-well Poly-D-Lysine assay plate. Cells in Assay Media were incubated for 16-24 hours in the plate at 37° C./5% CO2 in a humidified incubator. 4 μL of a 10× serial dilution of ALK5 inhibitors (10x=100,000-3.16 nM) was added to appropriate wells of the plate and pre-incubated at 37° C./5% CO2 in a humidified incubator with cells for 30 minutes. Final concentration of inhibitor ranged from 10,000 nM to 0.316 nM. 4 μL of 10× TGF-beta 1 (final concentration of 0.03 nM) was added to wells containing the inhibitors. The plate was incubated for 5 hours at 37° C./5% CO2 in a humidified incubator. 8 μL of 1 μM Substrate Loading Solution was added to each well and the plate was incubated for 2 hours at room temperature before being read on a fluorescence plate reader. Percent inhibition was determined compared to DMSO only control (maximal TGF-beta 1 stimulation) and sigmoidal dose response curve fit yielded IC50 values as indicated in Table 2.

TGFBR1 (ALK5) = TGFBR1 (ALK5) (Homo sapiens (Human), UniProt P36897); assay: LanthaScreen Eu Kinase Binding Assay TGFBR1 (ALK5) (ThermoFisher SelectScreen); conditions: read-out: TβRI (ALK5) Binding IC50
Description: as §1
ThermoFisher SelectScreen™ Biochemical Kinase Profiling Service, LanthaScreen™Eu Kinase Binding Assay TGFBR1 (ALK5)
Exemplified compounds were screened in 1% DMSO (final concentration) by 3-fold serial dilutions from 10,000 nM to 0.316 nM to produce an IC50 or at single concentrations of 10,000, 1000 and 100 nM according to the following protocol. To low volume, white 384-well plates (Greiner Cat #784207) add 160 nL 100× compound in 100% DMSO, 3.84 uL kinase buffer (50 mM HEPES, pH 7.5, 0.01% BRIJ-35, 10 mM MgCl2, 1 mM EGTA), 8 uL 2× kinase/antibody mixture in kinase buffer (final ALK5 concentration of 5 nM; final Eu-anti-GST antibody concentration of 2 nM), 4 uL 4× Tracer #178 in kinase buffer (final concentration of 5 nM). Gently shake the plates for 30 seconds and incubate at room temperature for 1 hour before reading fluorescence on a plate reader. Percent inhibition was determined compared to DMSO only control (maximal ALK5 tracer binding) and sigmoidal dose response curve fit yielded IC50 values as indicated in Table 2.

[2] = 3-fold serial dilutions 10,000 nM to 0.316 nM, ALK5 5 nM, Tracer #178 5 nM, sigmoidal dose response curve fit
[3] = compounds marked with an asterisk: evaluated at three concentrations, IC50 depicted as less than the lowest concentration producing >50% inhibition

Chain of TGFBR1 (ALK5) (P36897 34-503): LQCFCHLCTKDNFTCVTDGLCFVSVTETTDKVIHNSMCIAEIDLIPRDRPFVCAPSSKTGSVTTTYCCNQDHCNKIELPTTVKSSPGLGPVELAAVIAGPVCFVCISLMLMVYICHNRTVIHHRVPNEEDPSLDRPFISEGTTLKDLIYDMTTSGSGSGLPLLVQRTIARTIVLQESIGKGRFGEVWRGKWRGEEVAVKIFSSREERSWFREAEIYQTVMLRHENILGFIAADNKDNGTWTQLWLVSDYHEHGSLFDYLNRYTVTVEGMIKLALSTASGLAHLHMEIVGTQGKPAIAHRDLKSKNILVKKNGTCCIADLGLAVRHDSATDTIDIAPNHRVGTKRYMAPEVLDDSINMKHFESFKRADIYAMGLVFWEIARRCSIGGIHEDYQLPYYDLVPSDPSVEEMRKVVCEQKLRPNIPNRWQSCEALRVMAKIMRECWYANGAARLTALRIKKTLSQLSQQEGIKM

| Compound | pIC50 ([1]; Homo sapiens, HEK-293T) | pIC50 (TGFBR1 (ALK5); [2]) | pIC50 (TGFBR1 (ALK5); [3]) | pIC50 [1] |
| --- | --- | --- | --- | --- |
| Cn1ccc(-c2nc(C(N)=O)[nH]c2-c2ccc3ncsc3c2)n1 [Compound 62, 5-(benzo[d]thiazol-6-yl)-4-(1-methyl-1H-pyrazol-3-yl)-1H-imidazole-2-carboxamide] | 5.95 | 7.34 | – | – |
| Fc1cccc(NCc2nc(-c3ccn(C(F)F)n3)c(-c3ccc4nccnc4c3)[nH]2)c1 [Compound 46] | 7.94 | 8.25 | – | – |
| CC(C)n1ccc(-c2nc(CNc3ccc(F)c(F)c3)[nH]c2-c2ccc3nccnc3c2)n1 [Compound 48] | – | – | > 7.00 | – |
| CC(C)n1ccc(-c2nc(CNc3cc(F)cc(F)c3)[nH]c2-c2ccc3nccnc3c2)n1 [Compound 39] | 7.27 | – | – | – |
| Cn1ccc(-c2nc(CNc3cccc(F)c3)[nH]c2-c2ccc3ncccc3c2)n1 [Compound 24] | 5.71 | – | > 6.70 | – |
| CC(C)n1ccc(-c2nc(CNc3cccc(F)c3)[nH]c2-c2ccc3ncc(C#N)n3n2)n1 [Compound 27] | – | – | > 7.00 | – |
| Fc1cc(F)cc(NCc2nc(-c3ccn(C4CC4)n3)c(-c3ccc4nccnc4c3)[nH]2)c1 [Compound 68] | 7.96 | 8.92 | – | – |
| CC(C)n1ccc(-c2nc(CNc3cccc(C#N)c3)[nH]c2-c2ccc3nccnc3c2)n1 [Compound 41] | 7.11 | 7.48 | – | – |
| Cn1ccc(-c2nc(-c3ccc(C(N)=O)cc3)[nH]c2-c2ccc3c(c2)OCO3)n1 [Compound 67] | – | 7.30 | – | – |
| CC(C)n1ccc(-c2nc(CNc3ccccc3F)[nH]c2-c2ccc3nccnc3c2)n1 [Compound 57] | 5.66 | 6.89 | – | – |
| Cn1ccc(-c2nc(CNc3ccc(Cl)cc3)[nH]c2-c2ccc3ncnn3c2)n1 [Compound 12, N-((5-([1,2,4]triazolo[1,5-a]pyridin-6-yl)-4-(1-methyl-1H-pyrazol-3-yl)-1H-imidazol-2-yl)methyl)-4-chloroaniline hydrochloride] | < 5.00 | – | – | – |
| CC(C)n1ccc(-c2nc(CNc3cc(F)cc(F)c3)[nH]c2-c2ccc3ncnn3c2)n1 [Compound 36, N-((5-([1,2,4]triazolo[1,5-a]pyridin-6-yl)-4-(1-isopropyl-1H-pyrazol-3-yl)-1H-imidazol-2-yl)methyl)-3,5-difluoroaniline hydrochloride] | 6.29 | 6.99 | – | – |
| CN(C)C(=O)c1ccc(-c2nc(-c3ccn(C)n3)c(-c3ccc4ncsc4c3)[nH]2)cc1 [Compound 66] | 5.87 | 6.55 | – | – |
| Cn1ccc(-c2nc(CNc3ccccc3F)[nH]c2-c2ccc3ncccc3c2)n1 [Compound 31, 2-fluoro-N-((4-(1-methyl-1H-pyrazol-3-yl)-5-(quinolin-6-yl)-1H-imidazol-2-yl)methyl)aniline hydrochloride] | 5.05 | – | > 6.00 | – |
| N#Cc1cccc(NCc2nc(-c3ccn(C(F)F)n3)c(-c3ccc4nccnc4c3)[nH]2)c1 [Compound 47] | 7.71 | 8.18 | – | – |
| Cc1nc(-c2ccn(C)n2)c(-c2ccc3ncsc3c2)[nH]1 [Compound 44, 6-(2-methyl-4-(1-methyl-1H-pyrazol-3-yl)-1H-imidazol-5-yl)benzo[d]thiazole] | 7.43 | 8.18 | – | – |
| CC(C)n1ccc(-c2nc(CNc3ccc(Cl)c(F)c3)[nH]c2-c2ccc3nccnc3c2)n1 [Compound 49] | – | – | > 6.00 | – |
| Cn1ccc(-c2nc(CNc3ccc(F)cc3)[nH]c2-c2ccc3ncnn3c2)n1 [Compound 8, N-((5-([1,2,4]triazolo[1,5-a]pyridin-6-yl)-4-(1-methyl-1H-pyrazol-3-yl)-1H-imidazol-2-yl)methyl)-4-fluoroaniline hydrochloride] | < 5.00 | 6.09 | – | – |
| Cn1ccc(-c2nc[nH]c2-c2ccc3ncsc3c2)n1 [Compound 55] | 6.88 | 8.33 | – | – |

| Compound | pIC50 ([1]; Homo sapiens, HEK-293T) | pIC50 (TGFBR1 (ALK5); [2]) | pIC50 (TGFBR1 (ALK5); [3]) | pIC50 [1] |
| --- | --- | --- | --- | --- |
| CC(C)n1ccc(-c2nc(CNc3ccccc3F)[nH]c2-c2ccc3ncccc3c2)n1 [Compound 33, 2-fluoro-N-((4-(1-isopropyl-1H-pyrazol-3-yl)-5-(quinolin-6-yl)-1H-imidazol-2-yl)methyl)aniline hydrochloride] | 5.04 | – | > 6.70 | – |
| CC(C)n1ccc(-c2nc(CNc3cccc(F)c3)[nH]c2-c2ccc3ncccc3c2)n1 [Compound 26, 3-fluoro-N-((4-(1-isopropyl-1H-pyrazol-3-yl)-5-(quinolin-6-yl)-1H-imidazol-2-yl)methyl)aniline hydrochloride] | – | – | > 7.00 | – |
| NC(=O)c1ccc(-c2nc(-c3ccn(C(F)F)n3)c(-c3ccc4ncsc4c3)[nH]2)cc1 [Compound 61] | 7.19 | 8.12 | – | – |
| Cn1ccc(-c2nc(-c3ccc(C(N)=O)cc3)[nH]c2-c2ccc3ncsc3c2)n1 [Compound 37] | 7.27 | 8.25 | – | – |
| CC(C)n1ccc(-c2nc(CNc3cc(F)cc(C(N)=O)c3)[nH]c2-c2ccc3nccnc3c2)n1 [Compound 58] | 5.41 | 7.11 | – | – |
| Cn1ccc(-c2nc[nH]c2-c2ccc3nccnc3c2)n1 [Compound 56] | 5.98 | 7.36 | – | – |
| CC(C)n1ccc(-c2nc(CNc3cccc(F)c3)[nH]c2-c2ccc3ncnn3c2)n1 [Compound 20, N-((5-([1,2,4]triazolo[1,5-a]pyridin-6-yl)-4-(1-isopropyl-1H-pyrazol-3-yl)-1H-imidazol-2-yl)methyl)-3-fluoroaniline hydrochloride] | 5.90 | – | > 7.00 | – |
| N-((5-([1,2,4]triazolo[1,5-a]pyridin-6-yl)-4-(1-methyl-1H-pyrazol-3-yl)-1H-imidazol-2-yl)methyl)-4-chloroaniline hydrochloride [Compound 14] | – | – | – | < 5.00 |
| CC(C)n1ccc(-c2nc(CNc3cc(F)ccc3F)[nH]c2-c2ccc3nccnc3c2)n1 [Compound 45] | 6.49 | – | > 7.00 | – |
| CC(C)n1ccc(-c2nc(-c3ccc(C(N)=O)cc3)[nH]c2-c2ccc3nccnc3c2)n1 [Compound 59] | – | 6.05 | – | – |
| Cn1ccc(-c2nc(-c3ccc(C#N)cc3)[nH]c2-c2ccc3nccnc3c2)n1 [Compound 42] | – | – | > 6.00 | – |
| CC(C)n1ccc(-c2nc(CNc3ccc(Cl)c(Cl)c3)[nH]c2-c2ccc3nccnc3c2)n1 [Compound 51] | – | 6.59 | – | – |
| Cn1ccc(-c2nc(CNc3ccccc3)[nH]c2-c2ccc3ncnn3c2)n1 [Compound 4, N-((5-([1,2,4]triazolo[1,5-a]pyridin-6-yl)-4-(1-methyl-1H-pyrazol-3-yl)-1H-imidazol-2-yl)methyl)aniline hydrochloride] | < 5.00 | 5.86 | – | – |
| Cc1cc(C(N)=O)cc(C)c1-c1nc(-c2ccn(C)n2)c(-c2ccc3ncsc3c2)[nH]1 [Compound 63] | 5.52 | 6.40 | – | – |
| Cn1ccc(-c2nc(CNc3ccccc3F)[nH]c2-c2ccc3ncnn3c2)n1 [Compound 2, N-((5-([1,2,4]triazolo[1,5-a]pyridin-6-yl)-4-(1-methyl-1H-pyrazol-3-yl)-1H-imidazol-2-yl)methyl)-2-fluoroaniline hydrochloride] | < 5.00 | 5.86 | – | – |
| CC(C)n1ccc(-c2nc[nH]c2-c2ccc3nccnc3c2)n1 [Compound 53, 6-(4-(1-isopropyl-1H-pyrazol-3-yl)-1H-imidazol-5-yl)quinoxaline hydrochloride] | – | – | > 6.00 | – |
| CC(C)n1ccc(-c2nc(CNc3cc(F)cc(C#N)c3)[nH]c2-c2ccc3nccnc3c2)n1 [Compound 50] | 5.97 | – | – | – |
| N#Cc1ccc(-c2nc(-c3ccn(C(F)F)n3)c(-c3ccc4ncsc4c3)[nH]2)cc1 [Compound 60] | – | 7.14 | – | – |
| Fc1cc(F)cc(NCc2nc(-c3ccn(C4CC4)n3)c(-c3ccc4ncnn4c3)[nH]2)c1 [Compound 69] | – | 8.52 | – | – |
